Experiments:
hsa-miR-21-3p = assay: miRNA microarray profiling of berberine-treated HepG2 cells; assay type: cell-based, human; conditions: HepG2, 40 μM berberine, 2 h and 4 h vs control cells
Experimental: The miRNA profiling was performed using an Agilent human miRNA Microarray R14 V2 containing 866 human miRNAs. […] Microarrays were scanned following the Agilent microarray scanner protocol, and image analysis and quantification were performed using the Agilent Feature Extraction software (Agilent Technologies). […]

ACSM2A = assay: qRT-PCR mRNA expression in primary human hepatocytes; assay type: cell-based; conditions: PHH, 40 μM berberine, 2-4 h
Experimental: (§1) The primary human hepatocytes from Caucasian donors were purchased from Invitrogen and cultured following the manufacturer's instructions. The hepatocytes were thawed and transferred into cryopreserved hepatocytes recovery medium (CM7000, Invitrogen), centrifuging at room temperature, 100×g for 10 min. Then, the hepatocytes were diluted to seeding density with plating medium (CM3000, Invitrogen) and added into collagen I-coated plates (Invitrogen). These plates were incubated at 37° C. for 4-6 hours under 5% CO2 for forming a monolayer. Then, plating medium was replaced by overlay incubation medium (CM4000 and 0.35 mg/mL Geltrex™ Matrix, Invitrogen), and the incubation medium was replaced daily. In the following examples, hepatocytes form 3 to 4 donors were used for experiments. A 50 mM stock solution of berberine chloride (Sigma-Aldrich) was prepared in dimethyl sulfoxide (DMSO). Cells were treated with 40 μM of berberine chloride or 0.08% DMSO as the control. For induction of lipid droplets formation in cultured cells, 200 μM of oleic acid (Sigma-Aldrich) was added into the culture medium for 24 h. Total RNA was extracted using a TRIZOL reagent (Invitrogen) according to the manufacturer's protocol. The total RNA quantity was measured using a NanoDrop ND-1000 spectrophotometer (Nanodrop Technologies). The total RNA quality and integrity were assayed using an Agilent 2100 bioanalyzer with an RNA 6000 nano kit (Agilent Technologies). Total RNAs (1 μg) were reverse-transcribed into cDNA by using M-MuLV Reverse Transcriptase (Thermo) and Oligo(dT)12-18 primers (Invitrogen) according to the manufacturer's protocol. The cDNA were then used for a real-time PCR with a LightCycler 480 SYBR Green I Master (Roche) by using primers shown in the following Table 1. The gene expression levels were normalized to GAPDH levels.

NAMPT = assay: as above; assay type: cell-based; conditions: PHH, 40 μM berberine, 4-8 h
Experimental: as §1

IL6R = assay: as above; assay type: cell-based; conditions: PHH, 40 μM berberine, 4-8 h
Experimental: as §1

DGAT2 = assay: Western blot protein expression in HepG2 cells; assay type: cell-based, human; conditions: HepG2, miR-21-3p over-expressed, 72 h
Experimental: (§2) The human HepG2 cells and HEK 293T cells used in the following examples were originally obtained from the American Tissue Culture Collection (ATCC, USA). The human HCC HepG2 cell line was cultured in Minimum Essential Medium Eagle (Sigma) supplemented with 10% fetal bovine serum (FBS) (Invitrogen), 2.2 g/L of sodium bicarbonate (Sigma), 0.1 mM of non-essential amino acids (Caisson), 1 mM of sodium pyruvate (Invitrogen), and 10 of ml/L penicillin-streptomycin-amphotericin solution (Biological Industries). Human HEK-293T cells were maintained in high-glucose Dulbecco's modified eagle medium (Invitrogen) supplemented with 10% FBS and 3.7 g/L of sodium bicarbonate (Sigma). Both cell lines were cultured at 37° C. and 5% CO2.
(§3) The HepG2 cells were transfected at a density of 5×10^4 cells per well in a 24-well culture plates with either 50 nM of hsa-miR-21-3p (miR-21-3p mimic) or negative-control mimic (NC mimic), or with either 100 nM of hsa-miR-21-3p inhibitor (miR-21-3p inhibitor) or negative-control inhibitor (NC inhibitor) by using the DharmaFECT 4 transfection reagent (Thermo Scientific Dharmacon) according to the manufacturer's instructions. Cells were incubated for 24 h or 48 h with a microRNA mimic or inhibitor prior to RNA purification for gene expression analysis, and were incubated for 72 h for protein expression analysis.
(§4) Total cell lysates were prepared using a lysis buffer (7 M of urea, 4% CHAPS, 2 M of thiourea, 40 mM of Tris, 65 mM of dithioerythritol). Protein samples were separated using 12.5% SDS-PAGE and then transferred to PVDF membranes. The following primary antibodies were used: rabbit polyclone anti-MAT1A (1:800, GeneTex), anti-MAT2A (1:1000, GeneTex), anti-MAT2B (1:1000, GeneTex), anti-ACACB (1:1000, Sigma), anti-DGAT2 (1:1000, GeneTex) and anti-GAPDH (1:3000, GeneTex) and mouse monoclone anti-ACACA (1:1000, Millipore). The goat polyclonal anti-rabbit or anti-mouse IgG antibody conjugated with HRP (1:5000, abcam) was used as the secondary antibody. The bands were imaged using the LAS-4000 mini luminescent image analyzer (Fujifilm). The quantification of western blot analysis was achieved by using Image J software. The protein expression levels were normalized to the GAPDH levels.

MAT1A = assay: Western blot protein expression in HepG2 cells; assay type: cell-based, human; conditions: HepG2, mimic transfection 72 h
Experimental: as §2, §3, §4

MAT2A = assay: Western blot protein expression in HepG2 cells; assay type: cell-based, human; conditions: HepG2, mimic transfection 72 h
Experimental: as §2, §3, §4

ACACB = assay: Western blot protein expression in HepG2 cells; assay type: cell-based, human; conditions: HepG2, mimic transfection, 72 h
Experimental: as §2, §3, §4

MAT2B 3′ UTR = assay: Dual luciferase reporter assay in HEK 293T cells; assay type: cell-based, human
Experimental: (§5) Full-length 3′ UTRs of MAT2A and MAT2B were amplified from the genomic DNA of HepG2 cells through PCR.
(§6) The PCR products were then cloned into the pMIR-REPORT Luciferase miRNA Expression Reporter Vector (Invitrogen), and all inserted sequences in the 3′ UTR constructs were checked using the ABI PRISM DNA sequencer.
(§7) The mutagenesis of the target sequences of hsa-miR-21-3p in MAT2A and MAT2B 3′ UTRs was performed using the QuikChange site-directed mutagenesis kit (Agilent) according to the manufacturer's standard protocol.
(§8) All mutated sequences, including Site 1, Site 2 and the double mutation of the MAT2A and the 3′ UTR mutant construct of MAT2B, were checked through DNA sequencing.
(§9) The HEK-293T and HepG2 cells were seeded at a density of 5×10^4 cells per well in a 24-well culture plate the day before transfection. The HEK-293T and HepG2 cells were tri-transfected with (1) any one of the above-mentioned pMIR-REPORT-3′ UTR construction (300 ng), (2) the control Renilla luciferase reporter plasmid pRL-TK from Promega (10 ng), and (3) 50 nM of hsa-miR-21-3p mimic or negative-control mimic by using the Lipofectamine 2000 transfection reagent (Invitrogen) according to the manufacturer's instructions. Luciferase assays were performed after transfection for 48 h by using the Dual Luciferase reporter assay kit (Promega) and the Paradigm detection platform (Beckman) according to the manufacturer's protocol. The firefly luciferase activity was normalized relative to the Renilla luciferase activity.

MAT2A 3′ UTR = assay: Dual luciferase reporter assay in HEK 293T cells; assay type: cell-based, human
Experimental: as §5, §6, §7, §8, §9

[1] = wild-type 3′ UTR, 50 nM mimic, 48 h

COc1ccc2cc3[n+](cc2c1OC)CCc1cc2c(cc1-3)OCO2 [berberine]
hsa-miR-21-3p expression increase (miRNA microarray) (hsa-miR-21-3p): 4 fold
mRNA expression of ACSM2A (ACSM2A): considerably decreases
mRNA expression of NAMPT (NAMPT): increase
mRNA expression of IL6R (IL6R): decreases

hsa-miR-21-3p (CAACACCAGUCGAUGGGCUGU; listed as RNA, chemistry not given here) [miR-21-3p mimic]
decrease in protein level of DGAT2 (DGAT2): 3.3 fold
MAT1A protein expression increase (MAT1A): 1.7 fold
MAT2A protein expression decrease (MAT2A): 2.6 fold
decrease in protein expression of ACACB (ACACB): 1.6 fold
luciferase reporter expression change, mutated MAT2B 3′ UTR (MAT2B 3′ UTR; seed match (+399-418) mutated): remained unchanged
luciferase reporter expression decrease, MAT2B 3′ UTR (MAT2B 3′ UTR; [1]): 2.3 fold
luciferase reporter expression decrease, Site 1 mutated MAT2A 3′ UTR (MAT2A 3′ UTR; Site 1 (+180-200) mutated): 1.5 fold
luciferase reporter expression decrease, MAT2A 3′ UTR (MAT2A 3′ UTR; [1]): 1.6 fold

— patent US9469854B2, “Pharmaceutical composition for treating liver diseases” (Academia Sinica, priority 2014, dated 2016)
